Laboratory results: ChEMBL document CHEMBL1201862, “PubChem BioAssay data set” (2004)
Activity calls are given as the source filed them.

How the values were obtained:
[1] = target: T1, Eukaryotic translation initiation factor 2-alpha kinase 3 (Homo sapiens, UniProt Q9NZJ5); test: Counterscreen assay for PERK inhibitors: Dose response cell-based high throughput screening assay to measure inhibition of PERK at 6 hours. [Related pubchem assays: 1522, 1416 ]; format: functional
T1 sequence (Q9NZJ5 whole entry): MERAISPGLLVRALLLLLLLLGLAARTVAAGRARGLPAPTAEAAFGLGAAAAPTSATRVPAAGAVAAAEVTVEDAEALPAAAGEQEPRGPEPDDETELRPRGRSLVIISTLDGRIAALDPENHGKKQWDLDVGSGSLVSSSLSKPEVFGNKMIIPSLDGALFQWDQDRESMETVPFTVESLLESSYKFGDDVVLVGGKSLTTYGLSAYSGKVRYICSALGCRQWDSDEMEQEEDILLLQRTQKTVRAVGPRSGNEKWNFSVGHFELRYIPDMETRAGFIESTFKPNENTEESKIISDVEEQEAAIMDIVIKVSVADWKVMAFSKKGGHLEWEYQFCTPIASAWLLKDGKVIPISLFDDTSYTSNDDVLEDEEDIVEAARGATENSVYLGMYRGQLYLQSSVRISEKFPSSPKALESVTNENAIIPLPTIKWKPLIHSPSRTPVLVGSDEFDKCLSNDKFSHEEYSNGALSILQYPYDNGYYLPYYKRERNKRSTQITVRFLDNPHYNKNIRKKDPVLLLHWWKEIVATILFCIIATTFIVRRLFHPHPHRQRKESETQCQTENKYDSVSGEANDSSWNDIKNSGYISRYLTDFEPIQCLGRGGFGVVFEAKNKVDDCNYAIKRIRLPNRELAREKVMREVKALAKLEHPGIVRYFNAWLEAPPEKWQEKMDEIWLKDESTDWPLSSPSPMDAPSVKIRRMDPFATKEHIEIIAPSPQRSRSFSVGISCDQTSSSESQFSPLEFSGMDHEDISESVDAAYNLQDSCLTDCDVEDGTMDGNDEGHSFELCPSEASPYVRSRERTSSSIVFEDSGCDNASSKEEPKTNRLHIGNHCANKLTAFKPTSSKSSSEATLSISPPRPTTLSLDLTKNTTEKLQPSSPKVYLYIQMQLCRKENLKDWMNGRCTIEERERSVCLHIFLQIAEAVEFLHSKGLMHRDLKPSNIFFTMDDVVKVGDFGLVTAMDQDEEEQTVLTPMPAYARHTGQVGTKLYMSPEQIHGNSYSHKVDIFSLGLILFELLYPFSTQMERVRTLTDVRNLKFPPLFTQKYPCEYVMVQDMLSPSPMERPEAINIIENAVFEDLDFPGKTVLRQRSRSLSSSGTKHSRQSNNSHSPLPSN

[2] = target: T1, Eukaryotic translation initiation factor 2-alpha kinase 3; test: Dose response cell-based high-throughput screening assay to measure PERK inhibition. [Related pubchem assays: 1416 ]; format: functional
Bcl-2-like protein 10 = Bcl-2-like protein 10 (Homo sapiens, UniProt Q9HD36); test: displacers of TR3 peptide from Bcl-B, primary screen, selectivity assay for Bfl-1 inhibitor project, biochemical, fluorescence polarization, FITC-TR3 peptide (AID 748);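 also: fluorescence polarization from a fluorescein-labelled TR3 peptide binding purified Bcl-B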
[3] = target: C-C chemokine receptor type 6 (Homo sapiens, UniProt P51684); test: CCR6 receptor antagonists, dose response, cell-based, luminescent beta-arrestin readout (AID 504728); format: functional
Vero [4] = test: Vero cell cytotoxicity, cytotoxicity control for flavivirus capping enzyme inhibitors (AID 588742); format: functional; details: Chlorocebus sabaeus
Nonstructural protein 1 = Nonstructural protein 1 (Influenza A virus, UniProt Q194T2); format: functional, Influenza A virus (A/California/07/2009(H1N1))
Genome polyprotein = Genome polyprotein (dengue virus type 2, UniProt P29990); test: Dengue-2 NS5 methyltransferase inhibitors, primary screen, biochemical, confirmation dose response (AID 588689); format: functional
Beta-galactosidase = Beta-galactosidase (Escherichia coli, UniProt Q8VNN2); test: beta-galactosidase enzyme inhibitors and activators, dose response, artefact control for CCR6 antagonist project, biochemical, E. coli enzyme, set 3 (AID 504712); format: functional
[5] = THP-1 cell cytotoxicity, dose response, cytotoxicity control for non-replicating M. tuberculosis project (AID 489025); format: functional
[6] = inhibitors of intracellular T. cruzi replication, confirmation, NIH3T3 host cells, beta-gal luminescence (AID 2044); format: functional, cell-based;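 also: intracellular parasites grown in NIH/3T3 mouse fibroblasts as host cells; luminescent beta-galactosidase reporter signal from transgenic T. cruzi replicating inside host cells; inhibitors lower the luminescence signal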
[7] = cytotoxicity toward NIH3T3 fibroblasts, dose response, counter-screen, cell-based, ATP luminescence, mouse fibroblasts (AID 2010); format: functional;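 also: cells exposed to compound for about 90 hours before reading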
[8] = target: T2, High affinity choline transporter 1 (Homo sapiens, UniProt Q9GZV3); test: CHT inhibitors, dose response, cell-based, 5-point CRC, membrane potential dye (AID 504840); format: functional
T2 sequence (Q9GZV3 whole entry): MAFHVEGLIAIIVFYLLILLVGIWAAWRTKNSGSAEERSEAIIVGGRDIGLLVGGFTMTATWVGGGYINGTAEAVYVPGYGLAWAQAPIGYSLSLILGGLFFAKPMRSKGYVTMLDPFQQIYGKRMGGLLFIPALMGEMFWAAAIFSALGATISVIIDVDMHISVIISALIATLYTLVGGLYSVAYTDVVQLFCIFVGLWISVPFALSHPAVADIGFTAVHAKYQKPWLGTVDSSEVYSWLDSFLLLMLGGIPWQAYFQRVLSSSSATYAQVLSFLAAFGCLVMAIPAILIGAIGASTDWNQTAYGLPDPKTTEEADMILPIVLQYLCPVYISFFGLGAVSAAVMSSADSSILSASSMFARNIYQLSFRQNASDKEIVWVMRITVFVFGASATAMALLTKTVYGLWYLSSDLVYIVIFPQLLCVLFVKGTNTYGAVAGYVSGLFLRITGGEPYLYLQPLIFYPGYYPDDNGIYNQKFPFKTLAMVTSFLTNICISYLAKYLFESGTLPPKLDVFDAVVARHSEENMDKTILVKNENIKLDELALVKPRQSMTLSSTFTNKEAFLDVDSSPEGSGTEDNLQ

[9] = Vero E6 cell cytotoxicity, dose response, cytotoxicity control for non-replicating M. tuberculosis project, secondary assay (AID 492998); format: functional, VeroE6; details: Vero C1008
[10] = HepG2 cell cytotoxicity, dose response, cytotoxicity control for non-replicating M. tuberculosis project (AID 489018); format: functional; details: Mycobacterium tuberculosis
cells = format: functional
[11] = target: Melanin-concentrating hormone receptor 1 (Homo sapiens, UniProt Q99705); test: Late-stage fluorescence-based counterscreen for antagonists of the G-protein coupled receptor 7 (GPR7): cell-based dose response assay to identify antagonists of the melanin-concentrating hormone receptor 1 (MCHR1). [Related pubchem assays (depositor defined):AID1861, AID1880, AID1952, AID2148, AID2251, AID2257, AID485339]; format: functional;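 also: stimulated with 30 nM MCH peptide agonist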
[12] = target: Heat shock protein HSP 90-alpha (Homo sapiens, UniProt P07900); format: functional, organism-based
Vero [13] = test: cells; format: functional; details: Chlorocebus sabaeus

Sequence of C-C chemokine receptor type 6 (P51684 whole entry): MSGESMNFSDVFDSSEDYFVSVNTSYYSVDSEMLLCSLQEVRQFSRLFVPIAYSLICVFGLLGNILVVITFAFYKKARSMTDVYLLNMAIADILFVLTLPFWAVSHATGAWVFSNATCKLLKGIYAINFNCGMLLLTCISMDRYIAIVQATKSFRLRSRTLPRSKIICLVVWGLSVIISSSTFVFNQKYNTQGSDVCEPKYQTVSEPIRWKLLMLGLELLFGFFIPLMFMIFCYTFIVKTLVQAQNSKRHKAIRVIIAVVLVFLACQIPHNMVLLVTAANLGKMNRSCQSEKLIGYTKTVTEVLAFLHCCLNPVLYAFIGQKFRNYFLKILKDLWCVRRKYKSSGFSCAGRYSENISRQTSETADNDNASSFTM
Sequence of Beta-galactosidase (Q8VNN2 whole entry): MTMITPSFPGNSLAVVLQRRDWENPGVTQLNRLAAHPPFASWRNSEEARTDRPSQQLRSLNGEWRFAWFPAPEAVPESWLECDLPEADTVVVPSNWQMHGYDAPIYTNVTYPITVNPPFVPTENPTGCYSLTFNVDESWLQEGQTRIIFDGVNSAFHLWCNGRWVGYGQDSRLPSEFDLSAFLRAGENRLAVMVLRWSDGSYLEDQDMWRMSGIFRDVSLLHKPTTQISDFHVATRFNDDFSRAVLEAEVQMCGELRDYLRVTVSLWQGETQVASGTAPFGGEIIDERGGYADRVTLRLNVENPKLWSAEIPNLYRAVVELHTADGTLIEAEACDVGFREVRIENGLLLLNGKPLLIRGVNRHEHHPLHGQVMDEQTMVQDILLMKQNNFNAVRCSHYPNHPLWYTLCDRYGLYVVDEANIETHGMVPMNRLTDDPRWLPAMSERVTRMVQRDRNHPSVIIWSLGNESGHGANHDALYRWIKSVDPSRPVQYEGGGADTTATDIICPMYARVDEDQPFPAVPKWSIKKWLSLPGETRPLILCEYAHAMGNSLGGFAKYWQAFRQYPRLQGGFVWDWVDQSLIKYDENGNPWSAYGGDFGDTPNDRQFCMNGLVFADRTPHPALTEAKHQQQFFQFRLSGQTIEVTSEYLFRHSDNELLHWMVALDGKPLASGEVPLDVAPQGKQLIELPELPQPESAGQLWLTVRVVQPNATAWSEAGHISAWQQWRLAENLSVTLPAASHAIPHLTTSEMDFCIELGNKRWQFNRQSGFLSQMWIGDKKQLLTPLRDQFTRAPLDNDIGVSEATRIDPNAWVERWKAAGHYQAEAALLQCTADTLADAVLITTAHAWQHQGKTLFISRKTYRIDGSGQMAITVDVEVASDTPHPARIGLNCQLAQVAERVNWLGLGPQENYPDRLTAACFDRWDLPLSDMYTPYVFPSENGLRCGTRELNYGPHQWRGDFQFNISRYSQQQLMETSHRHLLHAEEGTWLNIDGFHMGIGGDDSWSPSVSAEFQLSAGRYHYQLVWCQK
Sequence of Bcl-2-like protein 10 (Q9HD36 whole entry): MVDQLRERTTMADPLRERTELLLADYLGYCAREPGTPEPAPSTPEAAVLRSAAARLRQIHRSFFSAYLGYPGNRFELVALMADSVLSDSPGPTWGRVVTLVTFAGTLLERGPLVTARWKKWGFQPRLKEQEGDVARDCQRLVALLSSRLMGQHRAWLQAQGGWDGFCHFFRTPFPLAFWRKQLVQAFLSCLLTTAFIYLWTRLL
Sequence of Melanin-concentrating hormone receptor 1 (Q99705 whole entry): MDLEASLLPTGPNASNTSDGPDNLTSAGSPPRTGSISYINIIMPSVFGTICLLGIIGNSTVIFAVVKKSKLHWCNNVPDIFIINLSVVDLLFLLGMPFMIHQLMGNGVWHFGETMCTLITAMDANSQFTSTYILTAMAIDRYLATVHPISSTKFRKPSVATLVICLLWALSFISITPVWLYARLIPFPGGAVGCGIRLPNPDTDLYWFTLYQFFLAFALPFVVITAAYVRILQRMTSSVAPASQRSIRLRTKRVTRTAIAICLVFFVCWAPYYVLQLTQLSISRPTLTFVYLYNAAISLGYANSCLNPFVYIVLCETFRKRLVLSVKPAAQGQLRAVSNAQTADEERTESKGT
Sequence of Genome polyprotein (P29990 2492-3391 limits assumed): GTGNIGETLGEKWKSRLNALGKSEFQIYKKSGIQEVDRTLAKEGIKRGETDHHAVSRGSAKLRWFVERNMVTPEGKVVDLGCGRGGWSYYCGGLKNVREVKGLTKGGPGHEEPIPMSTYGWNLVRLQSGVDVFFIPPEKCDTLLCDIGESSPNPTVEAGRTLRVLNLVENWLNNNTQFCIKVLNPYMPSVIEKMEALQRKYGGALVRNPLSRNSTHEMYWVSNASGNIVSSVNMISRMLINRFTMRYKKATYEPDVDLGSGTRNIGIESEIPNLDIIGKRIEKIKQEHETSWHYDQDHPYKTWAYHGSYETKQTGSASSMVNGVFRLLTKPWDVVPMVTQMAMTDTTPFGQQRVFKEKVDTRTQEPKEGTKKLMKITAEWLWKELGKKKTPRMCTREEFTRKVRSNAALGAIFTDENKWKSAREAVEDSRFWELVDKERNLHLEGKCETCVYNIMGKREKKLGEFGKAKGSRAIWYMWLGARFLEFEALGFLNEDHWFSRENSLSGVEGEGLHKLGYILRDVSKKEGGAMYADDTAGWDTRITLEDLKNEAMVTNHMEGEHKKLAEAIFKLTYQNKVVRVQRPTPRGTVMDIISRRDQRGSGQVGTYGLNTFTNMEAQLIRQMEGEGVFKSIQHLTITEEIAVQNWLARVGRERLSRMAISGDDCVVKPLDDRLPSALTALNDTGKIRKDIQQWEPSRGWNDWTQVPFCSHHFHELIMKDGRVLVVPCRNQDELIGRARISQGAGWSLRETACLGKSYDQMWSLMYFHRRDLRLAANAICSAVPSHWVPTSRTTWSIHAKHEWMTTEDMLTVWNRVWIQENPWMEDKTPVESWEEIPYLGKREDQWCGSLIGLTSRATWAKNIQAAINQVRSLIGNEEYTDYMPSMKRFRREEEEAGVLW
Sequence of Nonstructural protein 1 (Q194T2 whole entry): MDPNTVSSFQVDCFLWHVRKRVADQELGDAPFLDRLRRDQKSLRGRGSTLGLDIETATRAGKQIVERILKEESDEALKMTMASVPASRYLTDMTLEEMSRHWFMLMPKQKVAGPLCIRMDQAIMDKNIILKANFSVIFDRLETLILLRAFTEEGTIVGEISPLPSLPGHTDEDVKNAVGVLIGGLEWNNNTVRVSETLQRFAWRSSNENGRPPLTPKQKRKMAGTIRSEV

CCCCc1c(C)nc2c(OC)cccc2c1SCC(=O)O
EC50 [1]: > 55.7 µM (not active)
EC50 [2]: > 55.7 µM (not active)

COc1ccc(N2C(=O)c3cccc4cccc(c34)C2=O)nn1
IC50 (Bcl-2-like protein 10): > 50 µM (inactive)

Nc1c(S(=O)(=O)O)cc(NC(=O)c2ccccc2)c2c1C(=O)c1ccccc1C2=O
IC50 [3]: 26.9 µM (inactive)
CC50 (Vero [4]): > 40 µM (active)
IC50 (Nonstructural protein 1): 13.3 µM (active)
IC50 (Genome polyprotein): 34.3 µM (active)
IC50 (Beta-galactosidase): > 66.6 µM (inactive)

CN(C)CCCn1c(=O)n(CCc2ccccc2)c(=O)c2c3c(sc21)CCCCC3
CC50 [5]: 19.1 µM (active)
EC50 [6]: 0.113 µM (active)
EC50 [7]: 36.1 µM (active)
IC50 [8]: 12.6 µM (active)
CC50 [9]: 12.5 µM (active)
CC50 [10]: 14.3 µM (active)
IC50 (cells): 21.2 µM (active)

COc1ccc(Oc2c(C=O)cnn(-c3ccc(C(C)C)cc3)c2=O)cc1
IC50 [11]: 4.8 µM (active)

COc1cccc(/C=C2/CCC(CN(C)C)C2=O)c1 (stereo not given)
AC50 [12]: 4.55 µM (active)
IC50 [3]: 32.3 µM (inactive)
CC50 (Vero [13]): 22.4 µM (active)
IC50 (Beta-galactosidase): > 66.6 µM (inactive)
